Reference: patent publication US20160031935A1, “SMALL MOLECULE MODULATORS OF PCSK9 AND METHODS OF USE THEREOF” (ADAERATA, LIMITED PARTNERSHIP, priority 2013, published 2016)

Columns and labels:
[1] = tested on: HepG2 cells; experiment: Cell viability assay (cell density during the PCSK9 secretion assay); format: cell-based, human; settings: 33 μM
Method: For the cell viability assay, the cell density of HepG2 cells was measured in the presence of 33 μM of compounds or in the presence of DMSO (control) during the PCSK9 secretion assay described in Example 92. Table II below presents compounds with a low toxicity at 33.3 μM or less.

[2] = tested on: cell surface LDLR; experiment: FACS assay of LDLR at the HepG2 cell surface; format: cell-based, human; settings: 10 μM, 24 h; LDLR positive HepG2 cells
Method: The ability of PCSK9 inhibitory compounds to prevent the activity of PCSK9 on LDLR at the cell surface was also measured by using flow cytometry analyses as described in Benjannet S. et al. J. Biol. Chem. 285: 40965-40978, 2010. The level of LDLR at the HepG2 cell surface was measured by using anti human LDLR antibody (1:100, mAb-C7, Santa Cruz Biotechnology) and a secondary Alexa Fluor 647 donkey anti-mouse (Molecular Probes) antibody. Viable cells (PI-negative) were then analyzed by FACS for both PI and Alexa Fluor 647 using the FACS BD LSR (BD Biosciences). Cell surface LDLR was reported relative to control (untreated cells). The inhibition of the PCSK9 function in these assays was detected by an increased number of positive cells which correlated with an increased expression of LDLR at the cell surface.
More particularly, Human hepatoblastoma HepG2 cells (4×10^5 cells/well) were seeded in 12 well plates (Greiner BioOne) in complete media and cultured for 20 hours, at 37° C., followed by a 1 hour wash in serum free media at 37° C. Next, the wash media was removed and the cells were incubated overnight (24 hours) with 0.9 ml/well incubation media containing compounds at 10 uM or DMSO control (0.4% final). After one rinse with buffer A followed by another rinse with EDTA solution (2.5 mM EDTA-2Na), the cells were detached by incubation in the presence of fresh EDTA solution (1 ml) at 37° C. for 20 minutes. All the steps following cell detachment were conducted on ice or 4° C. To terminate the detachment, the cells were transferred in a 15 ml tube containing 3 ml of buffer A and centrifuged immediately for 5 minutes at 900 rpm (100 g) (4° C.). The cells were then resuspended in 500 ul buffer A together with 1:250 human LDLR antibody and incubated on ice for 10 minutes. Cells were washed once with 5 ml buffer A, centrifuged for 5 minutes, resuspended in 500 ul buffer A containing 1:500 Alexa Fluor 647 secondary antibody and incubated on ice for 5 min. After the staining, cells were washed once with 5 ml buffer A, centrifuged for 5 minutes and resuspended in 300 ul buffer A containing 1.67 ug/ml propidium iodide. A fixed number (2,000 cells) of viable cells (propidium iodide negative) were then analyzed by FACS for Alexa Fluor 647 (cell surface LDLR) using a FACS-CyAn ADP flow cytometer (Beckman Coulter (DAKO)) and Summit software (Summit Software Inc.).
Human HepG2 cell line: ATCC, HB-8065 Seeding media: complete media—EMEM (high glucose+sodium pyruvate) (Wisent)+10% FBS Wash media: serum free media—EMEM (high glucose+sodium pyruvate) (Wisent) Incubation media with compounds: EMEM (high glucose+sodium pyruvate) (Wisent)+0.07% BSA (Sigma-Aldrich) BufferA: 1×D-PBS without calcium and magnesium (Wisent 311-425-CL)+0.5% BSA (Sigma A7409-50ml)+[…] Glucose (Wisent 609-036-EL). Primary antibody: human LDLR antibody, monoclonal Mouse IgG1 clone #472413 (MAB2148, R&D Systems) Secondary antibody: Alexa Fluor® 647 goat anti-mouse IgG (H+L)*2 mg/mL*(A21235, Molecular Probes) Propidium iodide: 1 mg/ml solution (P4864, Sigma)

Row | SMILES | Cell viability (% DMSO Cnt) [1] [% DMSO Cnt] | FACS-LDLR (% DMSO Cnt) [2] [% DMSO Cnt]
1 | CCCCCCCCCC(=O)N[C@H](C(=O)N[C@@H](Cc1ccccc1)C(=O)N[C@H](C(=O)NC(CCC(N)=O)C(O)C(F)(F)F)C(C)C)C(C)C (stereo partly drawn) [Example 58, N-((2S)-1-(((2S)-1-(((2S)-1-((6-amino-1,1,1-trifluoro-2-hydroxy-6-oxohexan-3-yl)amino)-3-methyl-1-oxobutan-2-yl)amino)-1-oxo-3-phenylpropan-2-yl)amino)-3-methyl-1-oxobutan-2-yl)decanamide] | 93 | 166 ± 28
2 | CCCCCCCCCC(=O)N[C@H](C(=O)N[C@@H](Cc1ccccc1)C(=O)N[C@@H](Cc1ccccc1)C(=O)NC(CCC(N)=O)C(O)C(F)(F)F)C(C)C (stereo partly drawn) [Example 59, N-((2S)-1-(((2S)-1-(((2S)-1-((6-Amino-1,1,1-trifluoro-2-hydroxy-6-oxohexan-3-yl)amino)-1-oxo-3-phenylpropan-2-yl)amino)-1-oxo-3-phenylpropan-2-yl)amino)-3-methyl-1-oxobutan-2-yl)decanamide] | 83 | 265 ± 35
3 | CCCCCCCCCC(=O)N[C@H](C(=O)N[C@@H](Cc1ccccc1)C(=O)N[C@H](C)C(=O)N[C@@H](CCC(N)=O)C(O)C(F)(F)F)C(C)C (single isomer, unassigned) [Example 60] | 80 | 138 ± 8
4 | CC(C)[C@H](NC(=O)c1ccc(-c2ccccc2)cc1)C(=O)N[C@H](Cc1ccccc1)C(=O)N[C@@H](C)C(=O)NC(CCC(N)=O)C(O)C(F)(F)F (stereo partly drawn) [Example 70, N-((2S)-1-(((2R)-1-(((2S)-1-((6-Amino-1,1,1-trifluoro-2-hydroxy-6-oxohexan-3-yl)amino)-1-oxopropan-2-yl)amino)-1-oxo-3-phenylpropan-2-yl)amino)-3-methyl-1-oxobutan-2-yl)-[1,1′-biphenyl]-4-carboxamide] | – | 118 ± 18
5 | CC(C)[C@H](NC(=O)c1ccc(-c2ccccc2)cc1)C(=O)N[C@@H](Cc1ccccc1)C(=O)NC1(C(=O)N[C@@H](CCC(N)=O)C(O)C(F)(F)F)CCC1 (single isomer, unassigned) [Example 66] | – | 122 ± 11
6 | CC(C)[C@H](NC(=O)c1ccc(-c2ccccc2)cc1)C(=O)N[C@@H](Cc1ccccc1)C(=O)N[C@@H](C)C(=O)NC(CCC(N)=O)C(O)C(F)(F)F (stereo partly drawn) [Example 24, N-((2S)-1-(((2S)-1-(((2S)-1-((6-Amino-1,1,1-trifluoro-2-hydroxy-6-oxohexan-3-yl)amino)-1-oxopropan-2-yl)amino)-1-oxo-3-phenylpropan-2-yl)amino)-3-methyl-1-oxobutan-2-yl)-[1,1′-biphenyl]-4-carboxamide] | – | 116 ± 5
7 | CC(C)[C@H](NC(=O)c1ccc(C2(C(F)(F)F)N=N2)cc1)C(=O)N[C@@H](Cc1ccccc1)C(=O)N[C@@H](C)C(=O)NC(CCC(N)=O)C(O)C(F)(F)F (stereo partly drawn) [Example 29, N-((2S)-1-(((2S)-1-(((2S)-1-((6-Amino-1,1,1-trifluoro-2-hydroxy-6-oxohexan-3-yl)amino)-1-oxopropan-2-yl)amino)-1-oxo-3-phenylpropan-2-yl)amino)-3-methyl-1-oxobutan-2-yl)-4-(3-(trifluoromethyl)-3H-diazirin-3-yl)benzamide] | 88 | 233 ± 50
8 | CSCC[C@H](NC(=O)c1ccc(-c2ccccc2)cc1)C(=O)N[C@@H](Cc1ccccc1)C(=O)N[C@@H](C)C(=O)NC(CCC(N)=O)C(O)C(F)(F)F (stereo partly drawn) [Example 75, N-((5S,8S,11S)-17-amino-8-benzyl-11-methyl-6,9,12,17-tetraoxo-14-(2,2,2-trifluoro-1-hydroxyethyl)-2-thia-7,10,13-triazaheptadecan-5-yl)-[1,1′-biphenyl]-4-carboxamide] | – | 174 ± 41
9 | CC(C)[C@H](NC(=O)c1ccc(-c2ccc(F)cc2)cc1)C(=O)N[C@@H](Cc1ccccc1)C(=O)N[C@@H](C)C(=O)NC(CCC(N)=O)C(O)C(F)(F)F (stereo partly drawn) [Example 52, N-((2S)-1-(((2S)-1-(((2S)-1-((6-Amino-1,1,1-trifluoro-2-hydroxy-6-oxohexan-3-yl)amino)-1-oxopropan-2-yl)amino)-1-oxo-3-phenylpropan-2-yl)amino)-3-methyl-1-oxobutan-2-yl)-4′-fluoro-[1,1′-biphenyl]-4-carboxamide] | – | 138 ± 20
